{
  "source": "patent US20110033946A1",
  "about": "“DETECTION OF SHORT-CHAIN FATTY ACIDS IN BIOLOGICAL SAMPLES” (HEMAQUEST PHARMACEUTICALS, INC., priority 2009, published 2011)",
  "key": {"[1]": {"assay": "Stock solution stability at approximately 4° C. (old vs new stock peak areas)", "assay_type": "physicochemical", "conditions": "for Stock solution stability, RE % (to New) of old stock peak area: approximately 4° C.", "protocol": "The following LC-MS/MS conditions were applied for the analysis of underivatized sodium 2,2-dimethylbutyrate and DMV for stock solution stability analysis (2 to 3.5 month), and system suitability associated with these analyses: The following samples were also analyzed either in conjunction with one of the precision and accuracy runs or in one of the additional validation runs. Samples from six lots of control human plasma for specificity. Samples from six lots of control human plasma fortified with internal standard for specificity. Two concentration levels of unextracted QC-samples in triplicate (solvent standards) were analyzed for the evaluation of the recovery of sodium 2,2-dimethylbutyrate and DMV in human plasma. Two levels of QC samples (Low QC and High QC in triplicate) were subjected to three freeze/thaw cycles at approximately −70° C. prior to extraction to evaluate freeze/thaw stability. Two levels of QC samples (Low QC and High QC in triplicate) were placed on the bench top for approximately 17 hours prior to extraction for the evaluation of the bench top stability. Triplicate low QC samples and triplicate high QC samples were stored for one month and three months in a freezer at approximately −70° C., and then extracted and analyzed to evaluate long term stability in human plasma. Two levels of extracted QC samples (Low QC and High QC) were re-analyzed after approximately 71 hours in the autosampler at room temperature to evaluate the extract autosampler stability. Two levels of extracted QC samples (Low QC and High QC) were re-analyzed after approximately 8 hours in the freezer at approximately −20° C. to evaluate the extract freeze stability. Three aliquots of a dilution QC sample diluted 10-fold. Triplicate dilutions of the old stock solution (stored at approximately 4° C.) and new stock solutions prepared at intervals of two weeks and one month. Statistical calculations in the report tables were calculated from unrounded concentration values taken directly from the raw data. The concentration values were rounded for display purposes. Fresh stock solutions of sodium 2,2-dimethylbutyrate were prepared at intervals of two weeks and 1, 2, 3 and 3.5 months after the initial standard preparation. Similarly, the stability intervals for DMV were two weeks and 1, 2 and 3 months. The initial (or old) stock solutions and the fresh stock solutions were diluted into the calibration standard range and analyzed. The peak areas for the fresh (new) and old standard solutions were compared. Beginning with the 2-month stability analysis, sodium 2,2-dimethylbutyrate and DMV stock solutions were analyzed underivatized. This was done since the peak areas of both sodium 2,2-dimethylbutyrate and DMV varied among replicate derivatized preparations. Analyzing the standard solutions underivatized was a simpler procedure which gave more accurate and precise results"}, "[2]": {"assay_type": "physicochemical, dog", "conditions": "for Bench top stability, Mean concentration / Bench top stability, RE % (mean vs nominal): dog, 17 h", "protocol": "For the remaining validation tests, a calibration curve and triplicates QCs at the low, mid and high levels were analyzed with each sample set. The following samples were also analyzed either in conjunction with one of the precision and accuracy runs or in one of the additional validation runs: Samples from six lots of control dog plasma for specificity. Two concentration levels of unextracted QC-samples in triplicate (solvent standards) were analyzed for the evaluation of the recovery of sodium 2,2-dimethylbutyrate and DMV in dog plasma. Two levels of QC samples (Low QC and High QC in triplicate) were subjected to three freeze/thaw cycles at approximately −70° C. prior to extraction to evaluate freeze/thaw stability. Two levels of QC samples (Low QC and High QC in triplicate) were placed on the bench top for approximately 17 hours prior to extraction for the evaluation of the bench top stability. Triplicate low QC samples and triplicate high QC samples were stored for one month and three months in a freezer at approximately −70° C., and then extracted and analyzed to evaluate long term stability in dog plasma. Three aliquots of a dilution QC sample diluted 10-fold.\nBench top stability was evaluated at room temperature for approximately 17 hours. Triplicate QC-Low and QC-High samples were extracted and analyzed after these storage conditions. The CV % values for the QC-Low and QC-High stability samples are 3.2% and 3.4%, respectively. To calculate the RE %, the measured mean concentration was compared to the nominal concentration. The RE % values for the QC-Low and QC-High stability samples are 2.1% and −10.7%, respectively."}, "[3]": {"assay": "Short-term stability in human urine at room temperature", "assay_type": "physicochemical", "conditions": "unextracted, bench-top light, six hours, 0.3, 19 and 38 μg/ml", "protocol": "The applicability of the testing methodology to analyze samples stored under different conditions was analyzed. First, to assess short-term stability of DMB in human urine, samples at 0.3, 19 and 38 μg/ml, 92.3% of DMB were maintained unextracted at room temperature and at bench-top light levels for six hours. […] Second, to assess freeze/thaw stability of DMB in human urine, samples at 0.3, 19 and 38 μg/ml, 92.3% of DMB were stored at −70° C. and thawed. This process was repeated twice and samples after each freezing were analyzed for DMB as described. For each concentration and each freezing/thawing sample, the % CV was no more than 15%."}, "[4]": {"assay": "Stock solution stability at nominal 4° C. (Example 5)", "assay_type": "physicochemical", "conditions": "nominal temperature of 4° C.", "protocol": "In method I, the mobile phase of liquid chromatography was run on 0.1% formic acid in acetonitrile, and the elution volume was 10 ul. In method II, the mobile phase was run in 0.1% formic acid in methanol/water (98/2, volume to volume), and the elution volume was 5 ul."}},
  "note": "Read-outs that look alike come from different tables or passages of the source.",
  "data": [
    {"compound": "CCC(C)(C)C(=O)[O-].[Na+]", "note": "[Sodium 2,2-Dimethylbutyrate]", "values": [
      {"measurement": "Stock solution stability, RE % (to New) of old stock peak area", "setting": "[1]; 1 Month Interval", "result": 10.3, "unit": "%"},
      {"measurement": "Stock solution stability, RE % (to New) of old stock peak area", "setting": "[1]; 2 Month Interval, underivatized", "result": 2.2, "unit": "%"},
      {"measurement": "Stock solution stability, RE % (to New) of old stock peak area", "setting": "[1]; 2 Week Interval", "result": "−8.6", "unit": "%"},
      {"measurement": "Stock solution stability, RE % (to New) of old stock peak area", "setting": "[1]; 3 Month Interval, underivatized", "result": 1.6, "unit": "%"},
      {"measurement": "Stock solution stability, RE % (to New) of old stock peak area", "setting": "[1]; ~3.5 Month Interval, underivatized", "result": "−2.2", "unit": "%"},
      {"measurement": "Time stock solutions are stable", "setting": "[1]; stock solution in acetonitrile/water stored in a refrigerator at approximately 4° C.", "result": "at least 3.5 months"},
      {"measurement": "Time stable on bench top", "setting": "[2]; dog plasma, ambient bench top storage", "result": "approximately 17 hours"},
      {"measurement": "Bench top stability, Mean concentration", "setting": "[2]; 0.6 μg/mL", "result": 0.613, "unit": "µg/mL"},
      {"measurement": "Bench top stability, RE % (mean vs nominal)", "setting": "[2]; 0.6 μg/mL", "result": 2.1, "unit": "%"},
      {"measurement": "Bench top stability, Mean concentration", "setting": "[2]; 40 μg/mL", "result": 35.7, "unit": "µg/mL"},
      {"measurement": "Bench top stability, RE % (mean vs nominal)", "setting": "[2]; 40 μg/mL", "result": "−10.7", "unit": "%"},
      {"measurement": "Short-term stability in human urine", "setting": "[3]", "result": "stable"},
      {"measurement": "Time stock solutions are stable", "setting": "[4]", "result": "at least 115 days"}
    ]}
  ]
}
